Data taken from patent US20050107430A1, “Antimicrobial and antiviral compounds” (priority 2003, published 2005).
Converted amounts (≈) assume the structure as drawn. Read-outs that look alike come from different tables or passages of the source.

Test system: Mycobacterium tuberculosis
Settings: resistant strains

## c1ccc2c(c1)ccc1c3ccc(NCCCCN4CCCCC4)cc3ccc21 [Tx-5, N-(2′-chrysenyl)-4-(1′-piperidinyl)-butane-1,4-diamine]
2 wk
  MIC, M. tuberculosis resisant. strains: 2 µg/mL (≈ 5.23 µM)
4 wk
  MIC, M. tuberculosis resisant. strains: 4 µg/mL (≈ 10.5 µM)
